With `Cc1cc(C2=NN(C(N)=S)[C@H](C)Cc3cc4c(cc32)OCO4)cc(C)c1[N+](=O)[O-]` the melting point was 228 to 230 °C. `CC(=O)CC(=O)NC1CCCCCCC1` showed a melting point of 44 °C. `Nc1cc(Br)cc(Br)c1N` gave a melting point of 78 to 80 °C. Molecule `O=C(Nc1cccc2c(OC(=O)c3c(Cl)cccc3Cl)ccnc12)c1c(Cl)cccc1Cl` has a melting point of 248 °C. Molecule `Cc1ccc(CC(N)=O)cn1` has a melting point of 175 to 177 °C. `CCCCNC(=O)c1cccc(S(=O)(=O)NC(=O)c2ccc(C(=O)NCC(=O)OC)nc2)c1` showed a melting point of 198 to 200 °C. With `CCc1ccc(N)c(CS(=O)c2nc3ccccc3[nH]2)c1` (centres undefined) the melting point was 155 to 156 °C. In the case of `CCOCCn1c(C)c(C2(c3ccc(N(CC)CC)cc3CC)OC(=O)c3ccccc32)c2ccccc21` (centres undefined), the melting point is reported as 156 to 158 °C. Work on `CCCC(C1CCCCC1)n1cncc1C(=O)O` (centres undefined) yielded a melting point of 202 °C. Molecule `CCOC(=O)C1C=CC(c2ccccc2)n2c(=O)n(CCl)c(=O)n21` (centres undefined) has a melting point of 145 to 146 °C. `O=c1ccc(-c2ccsc2)n[nH]1` showed a melting point of 169 to 171 °C. `CCCCC(NS(=O)(=O)c1ccc(Cl)cc1)C(=S)Nc1ccc(CC(=O)OCC)cc1` (racemic) showed a melting point of 70 to 73 °C. Molecule `Cc1cc2c(s1)SCC1CC(=O)N(c3ccc(Cl)cc3)N=C21` (centres undefined) has a melting point of 142 to 144 °C. Work on `Cc1c(O)nc2ccc(F)cc2c1C(=O)O` yielded a melting point of over 305 °C. `O=C(O)C=CC(=O)c1cccs1` showed a melting point of 139 to 142 °C. For `c1cc(CCCn2ccnc2)cc(OCc2coc(-c3cccs3)n2)c1`, the melting point was 112 to 113 °C. In the case of `Cn1c(Oc2ccc(N=C=S)cc2)nc2ccccc21`, the melting point is reported as 59 to 61 °C. `Nc1cc(N)cc(C(c2c(O)c3c(oc2=O)CCCCCC3)C2CC2)c1` (centres undefined) gave a melting point of 87 °C. Work on `CS(=O)(=O)OCC1(c2ccccc2)CCCC1` yielded a melting point of 55 to 60 °C. Molecule `COc1ccc(-c2ccc(COCCc3cccc(NS(=O)(=O)C(F)(F)F)c3)cc2)cc1` has a melting point of 96 to 98 °C. `CNc1ccc2[nH]c3cc(-c4ccccc4Cl)c4c(c3c2c1)C(=O)NC4=O` gave a melting point of 182 to 184 °C. In the case of `CCCCCCCCCCCCCCCCCCCCC1Cc2cc(C(=O)O)ccc2N1` (racemic), the melting point is reported as 110 to 115 °C. `O=C(O)CCC(=NOCc1ccc(OCc2cc(-c3ccccc3)on2)cc1)c1ccccc1` gave a melting point of 100 to 101 °C. With `Cc1cc2nnc(C)n2nc1-c1cccc(C(F)(F)F)c1` the melting point was 185 to 187 °C. For `COc1c(C)c(N2CCN(c3ccc4c(c3)OCCO4)CC2)c(C)c2c1OC(C)(C)C2`, the melting point was 167 to 168 °C. Work on `CCCCN(CCCC)C(=N)c1ccc(-c2ccc([N+](=O)[O-])cc2)o1` yielded a melting point of 100 to 101 °C. `C=CCCCCC1CCC(CC)(CC(=O)O)c2[nH]c3c(C)cccc3c21` (centres undefined) showed a melting point of 111 to 112 °C. `CC(=O)Nc1cc2c(cc1C#N)CCC2` showed a melting point of 172 °C. With `Cc1cccc(NCC2=NCCN2C(=O)Nc2ccccc2)c1C` the melting point was 137 °C. In the case of `CC1(C)COC(c2ccc(S)cc2)OC1`, the melting point is reported as 134 to 136 °C. `CCCCCCCCCCS(=O)(=O)c1ccc(O)c(C(=O)Nc2cccc(C(F)(F)F)c2)c1` showed a melting point of 108 to 109 °C. Work on `CN(C)C(=O)CCc1ccc(OCCN(C)c2nc3ccccc3o2)cc1` yielded a melting point of 103 to 105 °C. Molecule `CCCc1cc(O)nc(SCC(N)=O)n1` has a melting point of 200 to 203 °C. In the case of `CC(=Cc1ccc(C(=O)O)cc1)c1ccc2c(c1)OCCC2(C)C`, the melting point is reported as 242 to 244 °C. `I[Si](c1ccccc1)(c1ccccc1)c1ccccc1` showed a melting point of 221 to 225 °C. `CCCCCCCC(Oc1ccc(C(C)CC)cc1)C(=O)Nc1c(-c2ccccc2)nc2ccccc2c1C(=O)OC` (centres undefined) gave a melting point of 89 to 91 °C. `CCCCN(CCCC)S(=O)(=O)NC(=O)Nc1c(C(C)C)cccc1C(C)C` gave a melting point of 98 to 101 °C. In the case of `Cc1c(Cl)cc(C=O)c(O)c1Cl`, the melting point is reported as 94 to 95.1 °C. `O=C(O)c1ccc(COc2cccc(-c3c(-c4ccccc4)cnc4c(C(F)(F)F)cccc34)c2)cc1` gave a melting point of 108 to 112 °C. In the case of `C=CCOC(=O)c1cccc(C2=Nc3cc(C)c(-c4cccc(CF)c4)cc3NC(=O)C2)c1`, the melting point is reported as 226 to 228 °C. Molecule `O=C(O)C1(c2ccccc2)CCN(Cc2ccccc2)CC1` has a melting point of 286 °C. For `c1ccc(-c2nc(SCCCSCCCSc3nc(-c4ccccc4)c(-c4ccccc4)[nH]3)[nH]c2-c2ccccc2)cc1`, the melting point was 208 to 209 °C. `Cn1ncc(C(=O)N2CCC2)c1C(=O)Nc1ccn2nc(-c3ccnc(F)c3)nc2c1` showed a melting point of over 280 °C. Molecule `COc1ccc(C=CC(=O)N2CCN(C(=O)C=Cc3ccc(OC)c(C(F)F)c3)CC2)cc1C(F)F` has a melting point of 259 to 261 °C. For `Ic1ccc(SSc2ccc(I)cc2)cc1`, the melting point was 122 to 123 °C. Work on `CC(c1oc2ccccc2c(=O)c1-c1cccc(F)c1)n1nc(-c2ccc(F)cc2O)c2c(N)ncnc21` (centres undefined) yielded a melting point of 235 to 237 °C. `N=c1[nH]c2ccc(Cl)cc2c2ncnn12` gave a melting point of 279 to 280 °C. `O[C@@H]1C(Cl)=CCC[C@@H]1O` showed a melting point of 111 to 112 °C. For `CC(=O)Oc1ccc(S(=O)(=O)Cl)cc1N=NC(C(C)=O)C(=O)Nc1ccccc1` (centres undefined), the melting point was 225 to 226 °C. Molecule `CC1(c2ccccc2)Cc2cc(OCCO)c(Cl)c(Cl)c2C1=O` (centres undefined) has a melting point of 188 to 190 °C. With `COc1ccc(-c2[nH]nc3c2C(=O)c2c(NC(=O)NNC(=O)c4ccccc4O)cccc2-3)cc1` the melting point was 280 °C. Work on `Cc1nc(N2CCc3ccccc3CC2)c(C#N)c(=O)n1C1CC1` yielded a melting point of 177 to 179 °C. Molecule `COc1ccc(CCCC(O)COc2ccc(OCc3ncc[nH]3)cc2)cc1OC` (centres undefined) has a melting point of 129 to 130 °C. With `Cn1nnnc1-c1ccc2[nH]ccc2c1` the melting point was 149 to 150 °C. `COCc1c(-c2csc(C)n2)ncc2c1c1cc(OCc3ccccc3)ccc1n2S(=O)(=O)c1ccc(C)cc1` gave a melting point of 173 to 175 °C. Molecule `CON=C(c1ccccc1OCc1ccc(C)cc1)n1ccnc1` has a melting point of 70.5 to 72 °C. Work on `O=C(c1ccccc1O)c1ccc(O)c(Cl)c1Cl` yielded a melting point of 200 to 202 °C. For `CCCCCCCCCCCCC(C)CNc1cc(C)c([N+](=O)[O-])cc1C(N)=O` (centres undefined), the melting point was 117 to 119 °C. With `O=C1c2c(O)ccc(O)c2-c2nn(CC(O)CO)c3ccc(NCCNCCO)c1c23` (centres undefined) the melting point was 184 to 188 °C. `CCCc1cc(=O)oc2cc(OCCCN3CCN(c4ccccc4)CC3)ccc12` showed a melting point of 114 to 116 °C. `COc1ccc(S(=O)(=O)n2ccc3ccnc(N(C)C)c32)cc1` gave a melting point of 155 to 158 °C. Work on `Cc1cc(Br)c(NC(=O)CBr)c(Br)n1` yielded a melting point of 197 to 199 °C. `O=C(CCCc1ccccc1)N[C@H]1C[C@H](C(=O)O)Nc2cc(Cl)cc(Cl)c21` (relative stereo) gave a melting point of 189 to 191 °C. In the case of `Nc1nc(NCCc2ccc(Oc3nc(N)n4nc(-c5ccco5)nc4n3)cc2)nc2nc(-c3ccco3)nn12`, the melting point is reported as 186 to 190 °C. Molecule `FC1(c2cn(-c3ccc(Br)cc3)nn2)CN2CCC1CC2` (centres undefined) has a melting point of 127 °C. Work on `COC(=O)c1cc2c([nH]c3ccc(Br)cc32)s1` yielded a melting point of 216 to 218 °C. Molecule `CCC(CC)c1nn(-c2ccc(C(F)(F)F)cn2)cc1CCCOc1c(CC(=O)O)ccnc1C` has a melting point of 78 to 79 °C. Work on `Cc1ccc(-n2nc(C)c(C(=O)O)n2)cc1` yielded a melting point of 230 to 232 °C. With `CC(C)(C)OC(=O)N1CCN(Cc2ccccc2)C[C@H]1C(c1ccccc1)c1ccccc1` the melting point was 108 to 109 °C. Molecule `COc1ccccc1N1CCN(CCN(C(=O)C2CCCCC2)c2ccccc2OCC(F)(F)F)CC1` has a melting point of 110 to 112 °C. Molecule `CC1(C)OC(=O)N[C@@H]1c1ccccc1` has a melting point of 149 °C. For `COc1nn(-c2ccc(C=O)c(Cl)c2)nc1Cl`, the melting point was 85 to 87 °C. In the case of `CCCc1c(OCCCSc2nnc(SCC(=O)N(C)O)s2)ccc(C(C)=O)c1O`, the melting point is reported as 97 to 99 °C. With `CC(C)(C)CC(=O)c1ccc2c(c1)C=C(C(=O)O)C(C(F)(F)F)O2` (centres undefined) the melting point was 198 to 200 °C. `NC(=O)c1cc(O)ccc1Cl` showed a melting point of 159 to 161 °C. For `CCCc1nc2c(N)nc(C)c(C)c2n1CCCCCS(=O)(=O)c1ccc(C(F)(F)F)cc1`, the melting point was 172 to 174 °C. `CN1Cc2c(C(=O)OC(C)(C)C)ncn2-c2cccc(Cl)c2C1=O` showed a melting point of 188 to 190 °C. Molecule `CC(=O)SCC(C(=O)NC(Cc1occ2ccccc12)C(=O)O)C(F)(F)F` (centres undefined) has a melting point of 147 to 149 °C. For `CCOC(=O)c1cc2n(C)c3ccc(Cl)cc3c(=O)n2n1`, the melting point was 272 to 274 °C. For `Nc1ncnc2c1nc(COCP(=O)(O)O)n2CCC1CCCCC1`, the melting point was over 250 °C. With `N#CCC(=O)NCc1cccc(Cl)c1` the melting point was 123 to 125 °C. With `OCCCCn1ccc(NC(=S)Nc2ccccc2)n1` the melting point was 112 to 117 °C. For `CCOC(=O)/C=C/c1cn(-c2ccccc2)nc1OCc1ccc(OCc2nc(-c3ccco3)oc2C)c(OC)c1`, the melting point was 177 to 178 °C. In the case of `COc1ccc(-c2ccc(Cl)nn2)cc1Br`, the melting point is reported as 226 to 228 °C. With `CN1C(C(=O)Nc2cccc(Br)c2)=C(O)c2ccc3ccccc3c2S1(=O)=O` the melting point was 268 to 269 °C. Molecule `CCOC(=O)C1=C(C)Nc2nc(N3CCOCC3)nc(N3CCOCC3)c2C1c1ccccc1C` (centres undefined) has a melting point of 234 °C. `CCOC(=O)c1c(N2CCN(C(=O)c3cccs3)CC2)c2cccnc2n(Cc2ccc(F)cc2)c1=O` gave a melting point of 196 °C. With `N#CC(c1ccccc1)C1CCN(c2ccc([N+](=O)[O-])cc2)CC1` (centres undefined) the melting point was 118 °C. Work on `Cc1cccc(NC(=O)c2ccc(C(=O)N3Cc4cccn4Cc4ccccc43)cc2)c1C` yielded a melting point of 239 to 240 °C. Work on `ClCc1ncc(-c2ccccc2)c2ccccc12` yielded a melting point of 101 to 102 °C. `COc1cc2c(c(Cl)c1Cl)C(=O)C(C)(CC1CCCC1)C2` (centres undefined) showed a melting point of 75 to 77 °C. `CC(=O)NC1=NN(c2ccccc2)CC1` showed a melting point of 190 to 191 °C. With `NC(=O)[C@@H]1[C@H](Nc2c(Br)cnc3[nH]c(-c4ccc(CN5CCOCC5)cc4)nc23)[C@H]2C=C[C@@H]1C2` the melting point was 217 to 219 °C. `O=C1c2ccccc2C(=O)N1CCc1nnc2n1-c1ccc(Cl)cc1C(c1ccccc1)=NC2` gave a melting point of 133 to 134 °C. Work on `N#CCC(C#N)=CNc1c(Cl)cc(C(F)(F)F)cc1Cl` yielded a melting point of 122 °C. `COc1ccc2c(c1)c(-c1cc3c(-c4cccnc4)ccnc3[nH]1)cn2C` showed a melting point of 248 to 249 °C. Work on `CC(C)(C)OC(=O)C1CC(c2ccc(-c3ccc(N4C[C@H](Cn5ccnn5)OC4=O)cc3F)cn2)=NO1` (some centres undefined) yielded a melting point of 165 to 168 °C. Work on `Cc1c2ccccc2c2c3c(cccc13)C(=O)OC2=O` yielded a melting point of 275 to 280 °C. In the case of `Cc1cc(C(F)(C(F)(F)F)C(F)(F)F)cc(C)c1NC(=O)c1cc(F)c(C#N)c(NC(=O)c2ccccc2)c1F`, the melting point is reported as 245 to 248 °C.

Source: a melting point compilation (Tetko et al.; mined from patent text by program, amines drawn as free bases though some values may be those of a salt)
